The assay addresses T1, human α7 nAChR (Homo sapiens, UniProt P36544).
T1 construct: host or cells: GH4C1 cells (pituitary tumor, immortalized cell line)
Nature of the assay: α7 nAChR FLIPR (Fluorometric Imaging Plate Reader) Ca2+ assay, agonist EC50. It counts as cell-based. The following applies: GH4C1 cells stably transfected with human α7 nAChR; Fluo-4 Ca2+ fluorescence; Examples 194 to 205 tested as the HCl salt; read-out: pEC50 value (negative logarithm of the agonist EC50) (converted). The procedure:
α7 nAChR FLIPR® (Fluorometric Imaging Plate Reader) Assay
Function of the heterologous expressed α7 nAChR was assessed by a FLIPR-Ca^2+ assay. Since nAChRs are non-selective cation channels with high permeability to Ca^2+, these studies were carried out by measuring changes of intracellular Ca^2+ concentration using the Ca^2+-chelating fluorescent dye Fluo-4 and FLIPR® (Fluorometric Imaging Plate Reader) technology.
GH4C1cells (pituitary tumor, immortalized cell line) stably transfected with human α7 nAChR (Biocat ID 96986), were thawed, suspended in growth medium (Ham's Nutrient Mixture F10—Ham's F10, Invitrogen 31550-023, 15% Horse Serum heat inactivated—Invitrogen 26050-047, 2.5% Foetal Bovine Serum—FBS, Gibco 10500-064, 200 μg/ml Hygromycin B—Invitrogen, 10687-010, 10 mg/L Phenol Red—Sigma, P 0290, 1 mM Glutamine—Invitrogen, 25030-024) and plated in 500 cm^2 Triple Flask.
Cells were then incubated at 30° C., 5% CO2 for 72 hours.
On the day of the experiment, cells were washed twice with Assay Buffer (AB) (145 mM NaCl, 5 mM KCl, 1 mM MgCl2, 2 mM CaCl2, 20 mM HEPES, 5.5 mM Glucose pH=7.3) containing 2.5 mM Probenecid. Changes in the intracellular Ca^2+ content of stably transfected cells were measured using the Ca^2+ chelating dye Fluo-4 (Tef Labs 0152) in conjunction with a FLIPR® (Molecular Devices). The cell permeant dye Fluo-4 was prepared to a concentration of 1 mM in 100% DMSO and 10% Pluronic acid. The dye was then diluted with AB to a final concentration of 2 μM and placed on the cells. After 45-60 minutes dye loading incubation at 37° C., the unincorporated dye was removed from the cells by washing (80 μL, 3 times) with AB, and a final volume of 30 μL/well of AB was left in each well.
Plates containing test compounds (dissolved in 100% DMSO at 2 mM and serially diluted with DMSO) were copied into “daughter” plates (1 μL/well dispensation). Just prior to starting the assay, the “daughter” plate was diluted with 50 μL/well of AB.
The plates were then placed in the FLIPR®, and cell fluorescence was determined before drug addition (30 seconds) and monitored (excitation 488 nm, emission 510-580 nm) immediately following exposure to compounds. Maximum fluorescence values were recorded and fitted for agonist EC50 calculations.
The results are expressed as pEC50 values. A pEC50 is the negative logarithm of the agonist EC50 calculation as determined in the α7 nAChR FLIPR® assay. […] Variations in pEC50 may arise between tests.
T1 sequence (P36544 23-502): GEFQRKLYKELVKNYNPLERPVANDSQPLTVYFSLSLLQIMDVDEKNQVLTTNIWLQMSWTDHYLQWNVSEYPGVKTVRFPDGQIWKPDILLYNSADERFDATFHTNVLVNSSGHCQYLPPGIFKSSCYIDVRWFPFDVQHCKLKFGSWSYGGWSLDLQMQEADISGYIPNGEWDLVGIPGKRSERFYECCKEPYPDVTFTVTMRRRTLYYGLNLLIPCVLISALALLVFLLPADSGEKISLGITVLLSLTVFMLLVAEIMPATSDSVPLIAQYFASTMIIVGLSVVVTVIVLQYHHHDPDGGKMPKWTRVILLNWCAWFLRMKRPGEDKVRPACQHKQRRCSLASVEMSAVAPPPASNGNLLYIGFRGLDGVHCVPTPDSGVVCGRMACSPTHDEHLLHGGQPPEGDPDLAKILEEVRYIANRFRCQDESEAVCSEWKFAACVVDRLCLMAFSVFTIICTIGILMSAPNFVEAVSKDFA
As for `O=C(Nc1ccc(-c2nnc(NCCCCN3CCCC3)o2)c(C(F)(F)F)c1)C1CCCCC1` [Example 64, N-[4-(5-{[4-(1-pyrrolidinyl)butyl]amino}-1,3,4-oxadiazol-2-yl)-3-(trifiuoromethyl)phenyl]cyclohexanecarboxamide], the EC50 was no more than 1000 nM.

In the case of `O=C(Nc1ccc(-c2nnc(NCCCCN3CCOCC3)o2)c(C(F)(F)F)c1)C1CCCCC1` [Example 66, N-[4-(5-{[4-(4-morpholinyl)butyl]amino}-1,3,4-oxadiazol-2-yl)-3-(trifluoromethyl)phenyl]cyclohexanecarboxamide], the EC50 is no more than 1000 nM.

On to `CCN(CC)CCCNc1nnc(-c2ccc(NC(=O)C3CCCCC3)cc2C(F)(F)F)o1` [Example 67, N-[4-(5-{[3-(diethylamino)propyl]amino}-1,3,4-oxadiazol-2-yl)-3-(trifluoromethyl)phenyl]cyclohexanecarboxamide], for which the EC50 was no more than 1000 nM.

As for `CCN(CC)CCCCNc1nnc(-c2ccc(NC(=O)C3CCCCC3)cc2C(F)(F)F)o1` [Example 68, N-[4-(5-{[4-(diethylamino)butyl]amino}-1,3,4-oxadiazol-2-yl)-3-(trifluoromethyl)phenyl]cyclohexanecarboxamide], the EC50 is no more than 1000 nM.

Consider `O=C(Nc1ccc(-c2nnc(NCCCN3CCCC3)o2)cc1)c1ccccc1` [Example 69, N-[4-(5-{[3-(1-pyrrolidinyl)propyl]amino}-1,3,4-oxadiazol-2-yl)phenyl]benzamide], for which the concentration giving a half-maximal response (EC50) was no more than 1000 nM.

For `COc1cc(NC(=O)c2ccccc2)ccc1-c1nnc(NCCCN2CCCC2)o1` [Example 70, N-[3-(methyloxy)-4-(5-{[3-(1-pyrrolidinyl)propyl]amino}-1,3,4-oxadiazol-2-yl)phenyl]benzamide], the EC50 is no more than 1000 nM.

Regarding `COc1cc(NC(=O)c2ccccc2)ccc1-c1nnc(NCCCN2CCCCC2)o1` [Example 71, N-[3-(methyloxy)-4-(5-{[3-(1-piperidinyl)propyl]amino}-1,3,4-oxadiazol-2-yl)phenyl]benzamide], the EC50 is no more than 100 nM.

As for `COc1cc(NC(=O)c2ccccc2)ccc1-c1nnc(NCCCN2CCOCC2)o1` [Example 72, N-[3-(methyloxy)-4-(5-{[3-(4-morpholinyl)propyl]amino}-1,3,4-oxadiazol-2-yl)phenyl]benzamide], the EC50 is no more than 1000 nM.

With `COc1cc(NC(=O)c2ccccc2)ccc1-c1nnc(NCCCCN2CCOCC2)o1` [Example 73, N-[3-(methyloxy)-4-(5-{[4-(4-morpholinyl)butyl]amino}-1,3,4-oxadiazol-2-yl)phenyl]benzamide], the EC50 is no more than 100 nM.

Turning to `CCN(CC)CCCNc1nnc(-c2ccc(NC(=O)c3ccccc3)cc2OC)o1` [Example 74, N-[4-(5-{[3-(diethylamino)propyl]amino}-1,3,4-oxadiazol-2-yl)-3-(methyloxy)phenyl]benzamide], the concentration for a half-maximal effect (EC50) was no more than 1000 nM.

On to `CCN(CC)CCCCNc1nnc(-c2ccc(NC(=O)c3ccccc3)cc2OC)o1` [Example 75, N-[4-(5-{[4-(diethylamino)butyl]amino}-1,3,4-oxadiazol-2-yl)-3-(methyloxy)phenyl]benzamide], for which the 50% effective concentration (EC50) was no more than 100 nM.

In the case of `COc1cc(NC(=O)c2ccccc2)ccc1-c1nnc(NCCCCN2CCCC2)o1` [Example 76, N-[3-(methyloxy)-4-(5-{[4-(1-pyrrolidinyl)butyl]amino}-1,3,4-oxadiazol-2-yl)phenyl]benzamide], the EC50 was no more than 100 nM.

In the case of `COc1cc(NC(=O)C2CCCCC2)ccc1-c1nnc(NCCCN2CCCC2)o1` [Example 77, N-[3-(methyloxy)-4-(5-{[3-(1-pyrrolidinyl)propyl]amino}-1,3,4-oxadiazol-2-yl)phenyl]cyclohexanecarboxamide], the EC50 was no more than 1000 nM.

Turning to `COc1cc(NC(=O)C2CCCCC2)ccc1-c1nnc(NCCCCN2CCCC2)o1` [Example 78, N-[3-(methyloxy)-4-(5-{[4-(1-pyrrolidinyl)butyl]amino}-1,3,4-oxadiazol-2-yl)phenyl]cyclohexanecarboxamide], the half-maximal effective concentration (EC50) was no more than 100 nM.

On to `COc1cc(NC(=O)C2CCCCC2)ccc1-c1nnc(NCCCN2CCOCC2)o1` [Example 79, N-[3-(methyloxy)-4-(5-{[3-(4-morpholinyl)propyl]amino}-1,3,4-oxadiazol-2-yl)phenyl]cyclohexanecarboxamide], for which the concentration for a half-maximal effect (EC50) was no more than 1000 nM.

For `COc1cc(NC(=O)C2CCCCC2)ccc1-c1nnc(NCCCCN2CCOCC2)o1` [Example 80, N-[3-(methyloxy)-4-(5-{[4-(4-morpholinyl)butyl]amino}-1,3,4-oxadiazol-2-yl)phenyl]cyclohexanecarboxamide], the concentration giving a half-maximal response (EC50) is no more than 1000 nM.

Consider `CCN(CC)CCCNc1nnc(-c2ccc(NC(=O)C3CCCCC3)cc2OC)o1` [Example 81, N-[4-(5-{[3-(diethylamino)propyl]amino}-1,3,4-oxadiazol-2-yl)-3-(methyloxy)phenyl]cyclohexanecarboxamide], for which the half-maximal effective concentration (EC50) is no more than 1000 nM.

Take `CCN(CC)CCCCNc1nnc(-c2ccc(NC(=O)C3CCCCC3)cc2OC)o1` [Example 82, N-[4-(5-{[4-(diethylamino)butyl]amino}-1,3,4-oxadiazol-2-yl)-3-(methyloxy)phenyl]cyclohexanecarboxamide]: the EC50 was no more than 1000 nM.

For `COc1cc(NC(=O)C2CCCCC2)ccc1-c1nnc(NCCCCN2CCCCC2)o1` [Example 83, N-[3-(methyloxy)-4-(5-{[4-(1-piperidinyl)butyl]amino}-1,3,4-oxadiazol-2-yl)phenyl]cyclohexanecarboxamide], the 50% effective concentration (EC50) was no more than 100 nM.

For the compound `O=C(Nc1ccc(-c2nnc(NCCCN3CCCC3)o2)c(C(F)(F)F)c1)c1ccccc1F` [Example 84, 2-fluoro-N-[4-(5-{[3-(1-pyrrolidinyl)propyl]amino}-1,3,4-oxadiazol-2-yl)-3-(trifluoromethyl)phenyl]benzamide], the 50% effective concentration (EC50) was no more than 1000 nM.

Consider `O=C(Nc1ccc(-c2nnc(NCCCCN3CCCC3)o2)c(C(F)(F)F)c1)c1ccccc1F` [Example 85, 2-fluoro-N-[4-(5-{[4-(1-pyrrolidinyl)butyl]amino}-1,3,4-oxadiazol-2-yl)-3-(trifluoromethyl)phenyl]benzamide], for which the concentration giving a half-maximal response (EC50) was no more than 100 nM.

As to `O=C(Nc1ccc(-c2nnc(NCCCN3CCOCC3)o2)c(C(F)(F)F)c1)c1ccccc1F` [Example 86, 2-fluoro-N-[4-(5-{[3-(4-morpholinyl)propyl]amino}-1,3,4-oxadiazol-2-yl)-3-(trifluoromethyl)phenyl]benzamide], the EC50 is no more than 1000 nM.

With `O=C(Nc1ccc(-c2nnc(NCCCCN3CCOCC3)o2)c(C(F)(F)F)c1)c1ccccc1F` [Example 87, 2-fluoro-N-[4-(5-{[4-(4-morpholinyl)butyl]amino}-1,3,4-oxadiazol-2-yl)-3-(trifluoromethyl)phenyl]benzamide], the half-maximal effective concentration (EC50) was no more than 1000 nM.

As for `CCN(CC)CCCNc1nnc(-c2ccc(NC(=O)c3ccccc3F)cc2C(F)(F)F)o1` [Example 88, N-[4-(5-{[3-(diethylamino)propyl]amino}-1,3,4-oxadiazol-2-yl)-3-(trifluoromethyl)phenyl]-2-fluorobenzamide], the half-maximal effective concentration (EC50) is no more than 1000 nM.

On to `CCN(CC)CCCCNc1nnc(-c2ccc(NC(=O)c3ccccc3F)cc2C(F)(F)F)o1` [Example 89, N-[4-(5-{[4-(diethylamino)butyl]amino}-1,3,4-oxadiazol-2-yl)-3-(trifluoromethyl)phenyl]-2-fluorobenzamide], for which the EC50 was no more than 100 nM.

Take `O=C(Nc1ccc(-c2nnc(NCCCCN3CCCCC3)o2)c(C(F)(F)F)c1)c1ccccc1F` [Example 90, 2-fluoro-N-[4-(5-{[4-(1-piperidinyl)butyl]amino]-1,3,4-oxadiazol-2-yl)-3-(trifluoromethyl)phenyl]benzamide]: the EC50 is no more than 100 nM.

Regarding `O=C(Nc1ccc(-c2nnc(NCCCN3CCCC3)o2)c(C(F)(F)F)c1)c1ccccc1` [Example 91, N-[4-(5-{[3-(1-pyrrolidinyl)propyl]amino}-1,3,4-oxadiazol-2-yl)-3-(trifluoromethyl)phenyl]benzamide], the EC50 was no more than 1000 nM.

On to `O=C(Nc1ccc(-c2nnc(NCCCCN3CCCC3)o2)c(C(F)(F)F)c1)c1ccccc1` [Example 92, N-[4-(5-{[4-(1-pyrrolidinyl)butyl]amino}-1,3,4-oxadiazol-2-yl)-3-(trifluoromethyl)phenyl]benzamide], for which the EC50 is no more than 100 nM.

For orientation: EC50 means the concentration giving half of the maximal effect.
